In PubChem BioAssay (NCI):
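Step 1: Grow cells in 96-well plates. Step 2: Expose to compound for 48 hours at 5 concentrations. Step 3: Interpolate endpoints linearly; if unreached, use highest concentration. GI50 = concentration required for 50% inhibition of growth. TGI is the concentration that stops growth completely.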

How the values were obtained:
Assay in all cases: DTP human tumour cell line panel, 48 h
COLO 205 colon = test system: COLO 205 colon
DU-145 prostate = test system: DU-145 prostate
NCI-H460 lung = test system: NCI-H460 lung
NCI/ADR-RES ovarian = test system: NCI/ADR-RES ovarian
RXF 393 renal = test system: RXF 393 renal
SK-OV-3 ovarian = test system: SK-OV-3 ovarian
T-47D breast = test system: T-47D breast
UO-31 renal = test system: UO-31 renal

| Structure (SMILES) | GI50 (COLO 205 colon) [µM] | TGI (COLO 205 colon) [µM] | GI50 (DU-145 prostate) [µM] | TGI (DU-145 prostate) [µM] | GI50 (NCI-H460 lung) [µM] | TGI (NCI-H460 lung) [µM] | GI50 (NCI/ADR-RES ovarian) [µM] | TGI (NCI/ADR-RES ovarian) [µM] | GI50 (RXF 393 renal) [µM] | TGI (RXF 393 renal) [µM] | GI50 (SK-OV-3 ovarian) [µM] | TGI (SK-OV-3 ovarian) [µM] | GI50 (T-47D breast) [µM] | TGI (T-47D breast) [µM] | GI50 (UO-31 renal) [µM] | TGI (UO-31 renal) [µM] |
| --- | --- | --- | --- | --- | --- | --- | --- | --- | --- | --- | --- | --- | --- | --- | --- | --- |
| CCN1CCN(c2nc(C)cc(NCc3cc(Nc4ccnc5cc(Cl)ccc45)ccc3F)n2)CC1 | 1.77 | 3.95 | 3.23 | 12.1 | 1.56 | 3.67 | 3.07 | 15.1 | 1.27 | 3 | 4.14 | 15 | 1.73 | 5.07 | 1.31 | 2.99 |
| Cc1nc2sc(C(=O)Nc3cccc(Br)c3C)c(N)c2cc1C(O)c1ccccc1 (stereo not drawn) | 0.0464 | 1.07 | 0.0422 | 5.16 | 0.0342 | 0.156 | 0.032 | 12.8 | 0.0294 | 26 | 0.0609 | 75.8 | 0.0554 | 67.7 | 0.0643 | 12.5 |
| CC1=CC(=O)N(c2cccc3c(N4C(=O)C=C(C)C4=O)cccc23)C1=O | 0.988 | 2.65 | 4.08 | 14.4 | 19.5 | 47.7 | 10.4 | > 89 | 1.96 | 4.4 | 53 | > 100 | 2.07 | 9.12 | 1.78 | 4.44 |
| Nc1ccccc1C#C/C=C\C#Cc1ccccc1C#CCO | 11.8 | 31.6 | 15.8 | > 50 | 8.73 | 22 | 6.17 | 21.4 | 9.25 | 32.1 | 12.1 | 27 | 16.9 | > 50 | 6.69 | > 50 |
| C/C(=N\NC(=O)c1ccncc1)c1sc(-n2nc(-c3ccccc3)cc2-c2ccccc2)nc1C | – | > 100 | – | > 31.6 | – | > 31.6 | – | > 100 | – | > 31.6 | – | > 31.6 | – | > 31.6 | – | > 31.6 |
| O=C(Nc1ccncc1)C(=O)c1cn(S(=O)(=O)c2cccc(Cl)c2)c2ccccc12 | 24.8 | 70.3 | 10.9 | > 100 | 20 | > 100 | 2.86 | > 100 | 4.34 | 21.2 | 30.2 | > 100 | 9.08 | > 100 | 11.7 | > 100 |
| NS(=O)(=O)c1ccc(N=Nc2ccc[nH]c2=O)cc1 | – | > 100 | – | > 100 | – | > 100 | – | > 100 | – | > 100 | – | > 100 | – | > 100 | – | > 100 |
| O=C(Oc1ccccc1)N(c1ccccc1)c1ccccc1 | 19.5 | 44.7 | 42.9 | > 100 | 26.4 | 89.2 | 21.8 | 72.2 | 25.8 | 92.6 | 47.3 | > 100 | 24.9 | > 100 | 15 | > 100 |
| CC1(C)C(N2CCOCC2)CS1(=O)=O (stereo not drawn) | – | > 10 | – | > 10 | – | > 10 | – | > 10 | – | > 10 | – | > 10 | – | > 10 | – | > 10 |
| C=C1c2nc3ccccc3n2C=C(c2cccc(Cl)c2)N1Cc1ccc(OC)cc1 | 9.14 | 35.7 | 1.8 | > 53.5 | 0.416 | 10.5 | 0.441 | 5.49 | 1.16 | 13.1 | 2.88 | > 100 | 2.55 | > 80.4 | 1.92 | 33.7 |
| COc1ccc2c(c1)C(=Nc1ccc(F)c(Cl)c1)c1c-2c(Nc2ccc(F)c(Cl)c2)nc2ccccc12 | > 100 | > 100 | > 100 | > 100 | > 100 | > 100 | 29.6 | > 72.9 | 0.579 | 37.1 | 18.8 | 98.6 | > 100 | > 100 | > 100 | > 100 |
| COc1cc(C(=O)/C=C/c2cc(-c3ccc4c(c3)OCO4)n[nH]2)cc(OC)c1OC | 2.08 | 4.66 | 2.92 | 9.16 | 1.81 | 3.77 | 2.99 | 12.3 | 1.31 | 2.94 | 4.44 | 14.6 | 1.51 | 4.63 | 1.34 | 2.67 |
